The values that follow come from patent US9688645B2, “Macrocyclic urea and sulfamide derivatives as inhibitors of TAFIa” (SANOFI, priority 2008, dated 2017).

The structures appear in SMILES notation.

TAFIa, sequence (Q96IY4 115-423): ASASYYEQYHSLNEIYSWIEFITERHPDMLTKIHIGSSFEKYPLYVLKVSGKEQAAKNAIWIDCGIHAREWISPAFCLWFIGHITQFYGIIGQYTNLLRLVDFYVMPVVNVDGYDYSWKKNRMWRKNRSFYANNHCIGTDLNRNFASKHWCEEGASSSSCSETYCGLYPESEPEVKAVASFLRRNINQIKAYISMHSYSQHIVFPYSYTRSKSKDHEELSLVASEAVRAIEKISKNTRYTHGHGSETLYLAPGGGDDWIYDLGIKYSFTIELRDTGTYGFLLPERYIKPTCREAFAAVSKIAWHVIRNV

Test system in the first series: not given
Assay: not given
The settings on record: from C=CCCCCCOC[C@@H](NC(=O)[C@@H](Cc1ccc(OCC=C)cc1)NC(=O)OCC1c2ccccc2-c2ccccc21)C(C)C; rcm bond; dichloro(o-isopropoxyphenylmethylene)(tricyclohexylphosphine)ruthenium (Hoveyda-Grubbs catalyst); dichloromethane; 3.5 mM; 40.0 °C; 24.0 h.
For `CC(C)[C@H]1COCCCCCC=CCOc2ccc(cc2)C[C@@H](NC(=O)OCC2c3ccccc3-c3ccccc32)C(=O)N1`, the ring closure, yield of all isomers worked out at 90.4%.

The series is the same for the next values; noted with them: from C=CCOC[C@@H](NC(=O)[C@@H](Cc1ccc(OCC=C)cc1)NC(=O)OCC1c2ccccc2-c2ccccc21)C(C)C; rcm bond; dichloro(o-isopropoxyphenylmethylene)(tricyclohexylphosphine)ruthenium (Hoveyda-Grubbs catalyst); dichloromethane; 3.61 mM; 40.0 °C; 24.0 h.
The compound `CC(C)[C@H]1COCC=CCOc2ccc(cc2)C[C@@H](NC(=O)OCC2c3ccccc3-c3ccccc32)C(=O)N1` showed a ring closure, yield of all isomers of 86.6%.

A further series addresses TAFIa (Homo sapiens (Human), UniProt Q96IY4). Kind of series: TAFIa inhibition, Actichrome plasma TAFI Activity Kit (American Diagnostica). Type of series: biochemical. The settings on record: chromogenic read-out at 420 nm, 15 min preincubation at room temperature, pH 7.4, duplicate determination. The method, then:
The prepared substances were tested for TAFIa inhibition using the Actichrome plasma TAFI Activity Kit from American Diagnostica (Pr. No. 874). This entailed adding 28 μl of assay buffer (20 mM Hepes, 150 mM NaCl, pH 7.4) and 10 μl of TAFIa (American Diagnostica Pr. No. 874TAFIA; 2.5 μg/ml) to 2 μl of 2.5 mM DMSO solution of the substance and incubating in a 96 half-well microtiter plate at room temperature for 15 minutes. The enzyme reaction was started by adding 10 μl of TAFIa developer (prediluted 1:2 with assay buffer). The time course of the reaction was followed at 420 nm in a microtiter plate reader (SpectraMax plus 384; Molecular Devices) for 15 minutes.
The IC50 values were calculated from the averaged values (duplicate determination) of serial dilutions of the substance with the aid of the Softmax Pro software (version 4.8; Molecular Devices).
What is called IC50 is the midpoint of a concentration-inhibition curve. Turning to `CC(C)[C@H]1COCCCCOc2ccc(cc2F)C[C@@H](NC(=O)N[C@@H](Cc2ccc(N)nc2)C(=O)O)C(=O)N1` [Example 6-3, (S)-3-(6-Aminopyridin-3-yl)-2-[3-((9S,12R)-16-fluoro-9-isopropyl-11-oxo-2,7-dioxa-10-azabicyclo[12.2.2]octadeca-1(17),14(18), 15-trien-12-yl)ureido]propionic acid], the half-maximal inhibitory concentration (IC50) was found to be 12 nM.

As for `C[C@H]1COCCCCOc2ccc(cc2)C[C@@H](NC(=O)N[C@@H](CCCCN)C(=O)O)C(=O)N1` [Example 1-8, (S)-6-Amino-2-[3-((9S,12R)-9-methyl-11-oxo-2,7-dioxa-10-azabicyclo[12.2.2]octadeca-1(17),14(18),15-trien-12-yl)ureido]hexanoic acid], the IC50 was 29 nM. Still for that read-out and setting: the figure for `CC(C)[C@H]1COCC(O)C(O)COc2ccc(cc2)C[C@@H](NC(=O)N[C@@H](CCCCN)C(=O)O)C(=O)N1` (stereo partly drawn) [Example 8-1, (S)-6-Amino-2-[3-((9S,12R)-4,5-dihydroxy-9-isopropyl-11-oxo-2,7-dioxa-10-azabicyclo[12.2.2]octadeca-1(17),14(18),15-trien-12-yl)ureido]hexanoic acid] is 23 nM; for `CC(C)[C@H]1COCCCCOC[C@@H](NC(=O)N[C@@H](Cc2ccc(N)nc2)C(=O)O)C(=O)N1` [Example 6-4, (S)-3-(6-Aminopyridin-3-yl)-2-[3-((3S,6R)-3-isopropyl-5-oxo-1,8-dioxa-4-azacyclododec-6-yl)ureido]propionic acid] it is 55 nM.

For the compound `CC(C)[C@H]1COCCCCOc2ccc(cc2)C[C@@H](NC(=O)N[C@@H](CCCCN)C(=O)O)C(=O)N1` [Example 1-1, (S)-6-Amino-2-[3-((9S,12R)-9-isopropyl-11-oxo-2,7-dioxa-10-azabicyclo[12.2.2]octadeca-1(17),14(18),15-trien-12-yl)ureido]hexanoic acid], the IC50 is 6 nM.

On to `NCCCC[C@H](NC(=O)N[C@@H]1Cc2ccc(cc2)OCCCCOC[C@H](C2CCCCC2)NC1=O)C(=O)O` [Example 1-6, (S)-6-Amino-2-[3-((9S,12R)-9-cyclohexyl-11-oxo-2,7-dioxa-10-azabicyclo[12.2.2]octadeca-1(17),14(18),15-trien-12-yl)ureido]hexanoic acid], for which the IC50 came to 811 nM. Same read-out and setting: to `NCCCC[C@H](NC(=O)N[C@@H]1Cc2ccc(cc2)OCCCCOC[C@H](Cc2ccccc2)NC1=O)C(=O)O` [Example 1-5, (S)-6-Amino-2-[3-((9S,12R)-9-benzyl-11-oxo-2,7-dioxa-10-azabicyclo[12.2.2]octadeca-1(17),14(18),15-trien-12-yl)ureido]hexanoic acid] belongs 105 nM; to `CC(C)[C@H]1COC/C=C/COc2ccc(cc2)C[C@@H](NC(=O)N[C@@H](CCCCN)C(=O)O)C(=O)N1` [Example 3-1, (S)-6-Amino-2-[3-((E)-(9S,12R)-9-isopropyl-11-oxo-2,7-dioxa-10-azabicyclo[12.2.2]octadeca-1(17),4,14(18), 15-tetraen-12-yl)ureido]hexanoic acid], 7.7 nM. Still for that read-out and setting: the figure for `NCCCC[C@H](NC(=O)N[C@@H]1Cc2ccc(cc2)OCCCCOC[C@H](c2ccccc2)NC1=O)C(=O)O` [Example 1-4, (S)-6-Amino-2-[3-((9S,12R)-11-oxo-9-phenyl-2,7-dioxa-10-azabicyclo[12.2.2]octadeca-1(17),14(18),15-trien-12-yl)ureido]hexanoic acid] is 71 nM; for `CC(C)[C@H]1COCCCCOc2ccc(cc2)C[C@@H](NC(=O)N[C@@H](CS(=O)(=O)CCN)C(=O)O)C(=O)N1` [Example 5-1, (R)-3-(2-Aminoethanesulfonyl)-2-[3-((9S,12R)-9-isopropyl-11-oxo-2,7-dioxa-10-azabicyclo[12.2.2]octadeca-1(17),14(18), 15-trien-12-yl)ureido]propionic acid] it is 649 nM. Consider `CC(C)[C@H]1COCCCCn2cnc(c2)C[C@@H](NC(=O)N[C@@H](Cc2ccc(N)nc2)C(=O)O)C(=O)N1` [Example 6-1, (S)-3-(6-Aminopyridin-3-yl)-2-[3-((8S,11R)-8-isopropyl-10-oxo-6-oxa-1,9,14-triazabicyclo[11.2.1]hexadeca-13(16),14-dien-11-yl)ureido]propionic acid], for which the IC50 turned out to be 52 nM. Still for that read-out and setting: to `CC(C)[C@H]1COCCC(=O)Nc2ccc(cc2)C[C@@H](NC(=O)N[C@@H](CCCCN)C(=O)O)C(=O)N1` [Example 7-1, (S)-6-Amino-2-[3-((8S,11R)-8-isopropyl-3,10-dioxo-6-oxa-2,9-diazabicyclo[11.2.2]heptadeca-1(16),13(17),14-trien-11-yl)ureido]hexanoic acid] belongs 22 nM; to `NCCCC[C@H](NC(=O)N[C@@H]1Cc2ccc(cc2)OCCCCOCCNC1=O)C(=O)O` [Example 1-2, (S)-6-Amino-2-[3-((R)-11-oxo-2,7-dioxa-10-azabicyclo[12.2.2]octadeca-1(17),14(18),15-trien12-yl)ureido]hexanoic acid], 9040 nM. On the same count and under the same terms, the figure for `CC(C)(C)[C@H]1COCCCCOc2ccc(cc2)C[C@@H](NC(=O)N[C@@H](CCCCN)C(=O)O)C(=O)N1` [Example 1-9, (S)-6-Amino-2-[3-((9S,12R)-9-tert-butyl-11-oxo-2,7-dioxa-10-azabicyclo[12.2.2]octadeca-1(17),14(18),15-trien-12-yl)ureido]hexanoic acid] is 19 nM; for `CC(C)[C@H]1COCC(O)C(O)COc2ccc(cc2)C[C@@H](NC(=O)NC(Cc2ccc(N)nc2)C(=O)O)C(=O)N1` (stereo partly drawn) [Example 8-3, 3-(6-Aminopyridin-3-yl)-2-[3-((9S,12R)-4,5-dihydroxy-9-isopropyl-11-oxo-2,7-dioxa-10-azabicyclo[12.2.2]octadeca-1(17),14(18), 15-trien-12-yl)ureido]propionic acid] it is 59 nM. Same read-out and setting: the figure for `CC(C)[C@H]1COCCNC(=O)c2ccc(cc2)C[C@@H](NC(=O)N[C@@H](Cc2ccc(N)nc2)C(=O)O)C(=O)N1` [Example 7-4, (S)-3-(6-Aminopyridin-3-yl)-2-[3-((8S,11R)-8-isopropyl-2,10-dioxo-6-oxa-3,9-diazabicyclo[11.2.2]heptadeca-1(16),13(17), 14-trien-11-yl)ureido]propionic acid] is 40 nM. As for `CC1(C)COCCCCOc2ccc(cc2)C[C@@H](NC(=O)N[C@@H](CCCCN)C(=O)O)C(=O)N1` [Example 1-3, (S)-6-Amino-2-[3-((R)-9,9-dimethyl-11-oxo-2,7-dioxa-10-azabicyclo[12.2.2]octadeca-1(17),14(18),15-trien-12-yl)ureido]hexanoic acid], the IC50 was determined as 269 nM. Still for that read-out and setting: the figure for `Nc1ccc(C[C@H](NC(=O)N[C@@H]2Cc3ccc(cc3)OCCCCOC[C@H](C3CC3)NC2=O)C(=O)O)cn1` [Example 5-3, (S)-3-(6-Aminopyridin-3-yl)-2-[3-((9S,12R)-9-cyclopropyl-11-oxo-2,7-dioxa-10-azabicyclo[12.2.2]octadeca-1(17),14(18), 15-trien-12-yl)ureido]propionic acid] is 32 nM; for `CC(C)[C@H]1COCCCCCCCC[C@@H](NC(=O)N[C@@H](CCCCN)C(=O)O)C(=O)N1` [Example 4-1, (S)-6-Amino-2-[3-((3S,6R)-3-isopropyl-5-oxo-1-oxa-4-azacyclotetradec-6-yl)ureido]hexanoic acid] it is 17 nM; for `CC(C)[C@H]1COCCCCCCCCOc2ccc(cc2)C[C@@H](NC(=O)N[C@@H](CCCCN)C(=O)O)C(=O)N1` [Example 2-1, (S)-6-Amino-2-[3-((13S,16R)-13-isopropyl-15-oxo-2,11-dioxa-14-azabicyclo[16.2.2]docosa-1(21), 18(22), 19-trien-16-yl)ureido]hexanoic acid] it is 8.8 nM. Same read-out and setting: to `CC[C@H]1COCCCCOc2ccc(cc2)C[C@@H](NC(=O)N[C@@H](CCCCN)C(=O)O)C(=O)N1` [Example 1-7, (S)-6-Amino-2-[3-((9S,12R)-9-ethyl-11-oxo-2,7-dioxa-10-azabicyclo[12.2.2]octadeca-1(17),14(18),15-trien-12-yl)ureido]hexanoic acid] belongs 49 nM; to `CC(C)[C@H]1COCCCCOc2ccc(cc2)C[C@@H](NC(=O)N[C@@H](Cc2ccc(N)nc2)C(=O)O)C(=O)N1` [Example 5-2, (S)-3-(6-Aminopyridin-3-yl)-2-[3-((9S,12R)-9-isopropyl-11-oxo-2,7-dioxa-10-azabicyclo[12.2.2]octadeca-1(17),14(18), 15-trien-12-yl)ureido]propionic acid], 9 nM. Still for that read-out and setting: the figure for `CC(C)[C@H]1COCCCCc2ccc(cc2)C[C@@H](NC(=O)N[C@@H](Cc2ccc(N)nc2)C(=O)O)C(=O)N1` [Example 6-2, (S)-3-(6-Aminopyridin-3-yl)-2-[3-((3R,6S)-6-isopropyl-4-oxo-8-oxa-5-azabicyclo[11.2.2]heptadeca-1(16),13(17), 14-trien-3-yl)ureido]propionic acid] is 21 nM.
